# Legend:
# [1] = target: T1, RBP4 (Homo sapiens, UniProt P02753); assay: Binding assay by Retinol-RBP4-TTR ELISA; design: the culture supernatant containing secreted hRBP4-His was recovered; made in house; host or cells: FreeStyle 293 expression system (Invitrogen), secreted into the culture supernatant; conditions: 10 μM compound; retinol 50 nM; His-tagged human RBP4, biotinylated human TTR; read-out: human RBP4 binding inhibitory activity (% at 10 μM)
# Method: Using the Retinol-RBP4-TTR ELISA system shown below, the action of the compound of the present invention to inhibit the binding of RBP4 and retinol and TTR was evaluated.
# 1F: Binding Assay by Retinol-RBP4-TTR ELISA
# This ELISA system detects a complex with RBP4 and TTR based on the retinol dependent binding of RBP4 to TTR.
# The His-tagged human RBP4 used was prepared in the above-mentioned 1C.
# The biotinylated human TTR used was prepared in the above-mentioned 1E.
# Streptavidin (20 μl) (10 μg/ml Streptavidin type II (Wako Pure Chemical Industries, Ltd.), 10 mM Tris-HCl (pH 7.5), 10 mM NaCl) was added to a 384 well blackplate (Nunc MaxiSorp, Thermo Fisher Scientific Inc.), and the plate was centrifuged (1000 rpm, 1 min) and coated at 4° C. overnight. The plate was washed twice with PBST (PBS, 0.05% Tween 20, 100 μl/well), and blocked with 25% Block Ace (Snow Brand Milk Products Co., Ltd., PBS, 100 μl/well). The plate was subjected to centrifugation (1000 rpm, 1 min), and incubated at room temperature for 4 hr or 4° C. overnight. The plate was washed twice with PBST (PBS, 0.05% Tween 20, 100 μl/well), and biotinylated human TTR (stock solution concentration 1.0 mg/ml) diluted 750-fold with PBST was added at […]. The plate was subjected to centrifugation (1000 rpm, 1 min), and further stood at room temperature for 1.5 hr or 4° C. overnight. The plate was washed 3 times with PBST (100 μl/well), and His-tagged human RBP4 (stock solution concentration 1.28 mg/ml) diluted 4000-fold with a reaction buffer (50 mM Tris-HCl, 150 mM NaCl, 0.005% Tween 20, 1 mM DTT, 0.1% BSA) was added at 10 μl/well. The dilution of the compound (200-fold concentration) was prepared with DMSO, and 1.6 μl each was added to a reaction buffer (320 μl) containing retinol (50 nM) (Sigma-Aldrich Co.). A reaction buffer (320 μl) containing retinol and added with DMSO was used as a positive control, and a reaction buffer (320 μl) not containing retinol and added with DMSO was used as a negative control. A mixed solution of retinol and the compound was added to the plate at 15 μl/well. The plate was stirred in a plate mixer, centrifuged (1000 rpm, 1 min), and reacted at room temperature for 2 hr. Anti-His HRP-conjugated antibody (QIAGEN) solution diluted with a reaction buffer was added at 10 μl/well, centrifuged (1000 rpm, 1 min), and reacted at room temperature for 30 min. The plate was washed 3 times with PBST (100 μl/well), SuperSignal ELISA Femto Maximum Sensitivity Substrate reagent (PIERCE, Thermo Fisher Scientific Inc.) was added at 30 μl/well, and the luminescence was measured by a plate reader (Envision).
# The binding inhibitory activity of the compound was determined by 100×(positive control value−test compound value)/(positive control value−negative control value).
# [2] = target: T2, RBP4 (Mus musculus, UniProt Q00724); assay: Blood RBP4-lowering action in C57BL/6J mouse, plasma RBP4 by ELISA; type: in vivo; conditions: mean±SD, n=4 or 5
# T2 construct: from tissue; host or cells: plasma of male C57BL/6J mice (Japan Charles River)
# Method: The blood RBP4-lowering action of the compound of the present invention was evaluated using C57BL/6J mouse.
# Male 7- to 10-week-old C57BL/6J mice (Japan Charles River) were acclimation reared under free food ingestion conditions on CE-2 solid feed (CLEA Japan, Inc.) for 4 to 6 days, and randomly grouped (4 or 5 per group). On the day of the test, blood samples were collected from the tail vein, and plasma was separated (0 hr value). Thereafter, a test compound (Example 1, 2, 3, 4, 5, 6, 7 or 8) was orally administered at a dose of 3 mg/kg or 10 mg/kg (solvent: 0.5% methylcellulose solution (10 mL/kg)). At 8 and 24 hr after the compound was administered, blood samples were collected from the tail vein and plasma was separated. A 0.5% methylcellulose solution (10 mL/kg) was orally administered to the control group.
# The amount of RBP4 in the collected plasma was measured by the ELISA method. Using rabbit anti-mouse RBP4 polyclonal antibody (Hokudo Co., Ltd.), RBP4 was quantified by the following process. A 96 well ELISA plate was coated with 50 μg/mL antibody (100 μL), and stood at 4° C. overnight or at room temperature for 2 hr. After blocking with BlockAce (Dainippon Pharmaceutical Co., Ltd.), 100 μL of mouse RBP4 or sample was added and the plate was stood at room temperature for 2 hr, washed with PBS-0.5% Tween20, added with HRP-labeled anti-RBP4 antibody (prepared by labeling RBP4 polyclonal antibody (Hokudo Co., Ltd.) with HRP (DOJINDO LABORATORIES)) (100 μL), and stood at room temperature for 1 hr. After washing, TMB (Sigma) was added at room temperature for 20 min to allow for color development. The reaction was quenched with 2N sulfuric acid and the absorbance at A450 nm was measured by a platereader. Variation from the initial value of each individual was taken as the relative value to the control group (initial value/control value, %) at each time point. The results are shown below in mean±standard deviation (n=4 or 5).
# [3] = test system: A2E in the eyeball of ABCA4 KO mouse; assay: Suppression of A2E accumulation in the eyeball of ABCA4 KO mouse, A2E by HPLC; type: in vivo; conditions: 8 or 12 weeks
# Method: The suppressive action for accumulation of retinoid metabolite bis-retinoid N-retinylidene-N-retinylethanolamine (A2E) in the eyeball, of the compound of the present invention, was evaluated using ATP-binding cassette A4 knockout (ABCA4 KO) mouse. A2E is the major constituent component of Lipofuscin in the eyeball, and is involved in the onset and pathology progression in atrophic age-related macular degeneration and Stargardt's disease. ABCA4 KO mouse was confirmed to show remarkable accumulation of A2E, Lipofuscin along with aging, and is known as an animal model of atrophic age-related macular degeneration and Stargardt's disease.
# 8-Week-old male ABCA4 KO mice were randomly grouped, and 0.5% methylcellulose solution was orally administered to the control group, and 0.5% methylcellulose suspension of a compound at a dose shown in the following Table was orally administered to the test compound group, each once per day at 10 mL/kg. Each group contained 6 or 7 mice. After repetitive administration for 8 or 12 weeks, eyeball was isolated under anesthesia.
# In the eyeball, A2E was measured by the HPLC method. A2E reference standard was synthesized from all-trans retinal, ethanolamine in acetic acid-added ethanol. First, 0.3 mL of PBS and zirconia beads were added to the eyeball, and homogenate was prepared using Mixer Mill MM 300 (QIAGEN). A chloroform:methanol (2:1) solution (0.8 mL) was added and the mixture was stirred for […]. The lower layer was separately taken in a different tube, the chloroform:methanol (2:1) solution (0.6 mL) was further added and the mixture was stirred for 5 min. The lower layer was combined with one separated earlier, and dried to solidness by blowing nitrogen gas. 0.05 mL of 85% acetonitrile solution was added and the mixture was stirred to give a measurement sample. For HPLC, Alliance e2695 and Photo diode array 2998 (PDA) (Waters) were used, and Empower 2 was used as an analysis software. The column used was Atlantis dC18 (3 μm, 3.9×150 mm) (Waters), and the column temperature was set to 40° C. […] Quantification was performed at ultraviolet absorbance at 440 nm by PDA.
# [4] = target: T1, RBP4; conditions: consequently inhibits formation of a complex with TTR; cited from earlier work
# [5] = test system: RBP4; conditions: administration to an animal; cited from earlier work
SMILES,inhibition at 10 µM [1] [%],RBP4 (initial value/control value %) 8 hr later ([2]; 10 mg/kg single oral dose) [%],RBP4 (initial value/control value %) 24 hr later ([2]; 10 mg/kg single oral dose) [%],other results
"O=C(O)COc1cnc(-c2cc(C(F)(F)F)cc(C(F)(F)F)c2)nc1 [Example 1, ((2-(3,5-bis(trifluoromethyl)phenyl)pyrimidin-5-yl)oxy)acetic acid]",98,37.25 ± 11.45,61.81 ± 14.79,–
"O=C(O)COc1ccn(-c2cc(C(F)(F)F)cc(C(F)(F)F)c2)n1 [Example 5, ((1-(3,5-bis(trifluoromethyl)phenyl)-1H-pyrazol-3-yl)oxy)acetic acid]",100,–,–,RBP4 (initial value/control value %) 8 hr later ([2]; 3 mg/kg single oral dose): 32.14 ± 6.82%; RBP4 (initial value/control value %) 24 hr later ([2]; 3 mg/kg single oral dose): 36.20 ± 1.87%; A2E (% of control value) ([3]; 3 mg/kg oral once per day): 59.10 ± 10.33 % of control value
"CC1=C(/C=C/C(C)=C/C=C/C(C)=C/C(=O)Nc2ccc(O)cc2)C(C)(C)CCC1 [fenretinide, 4-hydroxy(phenyl)retinamide]",–,–,–,binding of RBP4 and retinol [4]: inhibits binding of RBP4 and retinol; blood RBP4 [5]: induces lowering of blood RBP4
"O=C(O)COc1nc(-c2cc(C(F)(F)F)cc(C(F)(F)F)c2)co1 [Example 4, ((4-(3,5-bis(trifluoromethyl)phenyl)-1,3-oxazol-2-yl)oxy)acetic acid]",100,–,–,RBP4 (initial value/control value %) 8 hr later ([2]; 3 mg/kg single oral dose): 19.86 ± 11.85%; RBP4 (initial value/control value %) 24 hr later ([2]; 3 mg/kg single oral dose): 54.29 ± 19.15%; A2E (% of control value) ([3]; 1 mg/kg oral once per day): 79.47 ± 14.53 % of control value
"O=C(O)COc1ccc(-c2cc(C(F)(F)F)cc(C(F)(F)F)c2)nc1 [Example 2, ((6-(3,5-bis(trifluoromethyl)phenyl)pyridin-3-yl)oxy)acetic acid]",99,23.93 ± 5.84,64.87 ± 16.79,A2E (% of control value) ([3]; 10 mg/kg oral once per day): 77.63 ± 9.06 % of control value
"O=C(O)CCn1ccc(-c2cc(C(F)(F)F)cc(C(F)(F)F)c2)n1 [Example 3, 3-(3-(3,5-bis(trifluoromethyl)phenyl)-1H-pyrazol-1-yl)propanoic acid]",100,20.70 ± 1.55,49.64 ± 10.48,A2E (% of control value) ([3]; 10 mg/kg oral once per day): 73.90 ± 15.58 % of control value
"CCOC(=O)COc1cnc(-c2cc(C(F)(F)F)cc(C(F)(F)F)c2)nc1 [Example 6, ethyl 2-((2-(3,5-bis(trifluoromethyl)phenyl)pyrimidin-5-yl)oxy)acetate]",–,58.17 ± 8.61,79.70 ± 5.22,–
"COC(=O)COc1ccc(-c2cc(C(F)(F)F)cc(C(F)(F)F)c2)nc1 [Example 7, methyl 2-((6-(3,5-bis(trifluoromethyl)phenyl)pyridin-3-yl)oxy)acetate]",–,43.66 ± 4.92,71.75 ± 8.77,–

# — patent publication US10975043B2, “Heterocyclic compound” (TAKEDA PHARMACEUTICAL COMPANY LIMITED, priority 2014, dated 2021)
